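Test compounds were applied to cells in 96-well plates for 48 hours at 5 doses. GI50: concentration for 50% inhibition of growth.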 Activity calls are given as the source filed them. Cut-off read from the data, not from the text of the source: active = GI50 up to about 1.1 µM and inactive = higher.
Tests used:
Assay in all cases: DTP human tumour cell line panel, 48 h
[1] = system: Malme-3M
[2] = system: HT-29
[3] = system: NCI-H23
[4] = system: MDA-N
[5] = system: SW-620
[6] = system: K562
[7] = system: SK-MEL-5
[8] = system: RPMI-8226
[9] = system: SF-295
[10] = system: OVCAR-4
[11] = system: SK-MEL-28
[12] = system: MOLT-4
[13] = system: DU-145
[14] = system: ACHN
[15] = system: HOP-92
[16] = system: M14
[17] = system: A549
[18] = system: HCT-15
[19] = system: OVCAR-5
[20] = system: OVCAR-8

SMILES	GI50 [1]	GI50 [2]	GI50 [3]	GI50 [4]	GI50 [5]	GI50 [6]	GI50 [7]	GI50 [8]	GI50 [9]	GI50 [10]	GI50 [11]	GI50 [12]	GI50 [13]	GI50 [14]	GI50 [15]	GI50 [16]	GI50 [17]	GI50 [18] [µM]	GI50 [19]	GI50 [20]
Cn1c(=O)n2n(c1=O)C(S(=O)(=O)c1ccccc1)C2 (stereo not given)	> 100 µM (inactive)	> 100 µM (inactive)	> 100 µM (inactive)	> 100 µM (inactive)	> 100 µM (inactive)	> 100 µM (inactive)	> 100 µM (inactive)	> 100 µM (inactive)	> 100 µM (inactive)	> 100 µM (inactive)	> 100 µM (inactive)	> 100 µM (inactive)	> 100 µM (inactive)	> 100 µM (inactive)	> 100 µM (inactive)	> 100 µM (inactive)	> 100 µM (inactive)	> 100	> 100 µM (inactive)	> 100 µM (inactive)
O=C(O)C1C(C(=O)O)C2C(=O)C=CC1N2Cc1ccccc1 (stereo not given)	3.68 µM (inactive)	3.12 µM (inactive)	2.27 µM (inactive)	2.56 µM (inactive)	2.65 µM (inactive)	6.67 µM (inactive)	5.32 µM (inactive)	2.96 µM (inactive)	11.3 µM (inactive)	4.32 µM (inactive)	4.29 µM (inactive)	3.54 µM (inactive)	1.99 µM (inactive)	4.18 µM (inactive)	9.55 µM (inactive)	2.25 µM (inactive)	6.71 µM (inactive)	2.46	6.22 µM (inactive)	4.16 µM (inactive)
NC(=O)c1nnn(Cc2cc(Cl)c(C(=O)c3ccc(Cl)cc3)c(Cl)c2)c1N [CARBOXYAMIDOTRIAZOLE]	27.5 µM (inactive)	22.8 µM (inactive)	11.8 µM (inactive)	10.7 µM (inactive)	27.1 µM (inactive)	8.05 µM (inactive)	5.96 µM (inactive)	25.4 µM (inactive)	9.77 µM (inactive)	22 µM (inactive)	27.9 µM (inactive)	25.9 µM (inactive)	19.2 µM (inactive)	9.46 µM (inactive)	32 µM (inactive)	19.6 µM (inactive)	12.7 µM (inactive)	12.7	34.5 µM (inactive)	24.1 µM (inactive)

From ChEMBL document CHEMBL1201862, “PubChem BioAssay data set” (2004)
